Measurements taken from paper PMC11320734 (ACS Pharmacology & Translational Science, 2024).
Where two headings read alike, the source gives them in different places.

Experiments:
mouse CB2R = target: T1, mouse CB2R (Mus musculus, UniProt P47936); test: cAMP assay in CHO cells; assay type: cell-based; conditions: mean ± SD
T1 construct: expressed in transfected cells; host or cells: CHO cells

cynomolgus CB2R = cynomolgus CB2R (Macaca fascicularis, UniProt G7NVV5); test: cAMP assay in CHO cells; assay type: cell-based; conditions: mean ± SD; read-out: EC50 cAMP assay, monkey CB2R
ABHD12 = ABHD12 (Homo sapiens, UniProt Q8N2K0); test: Endocannabinoid target profiling: ABHD12; assay type: biochemical
GSH adduct formation = assay type: in vitro ADME, rat
Procedure: Cytochrome P450 (CYP) assays were conducted as previously described.[41] In brief, RNB-61 was incubated at a range of concentrations with the following components: pooled human liver microsomes, CYP probe substrate around the reported Km, and NADPH with a final concentration: 1 mM in 100 mM sodium phosphate buffer (pH 7.4). The conditions were optimized for a linear metabolic rate for the probe substrate reactions. The analysis of the samples was carried out by LC-MS/MS. The assays generated two endpoints: IC50 (μM) and percent inhibition at the highest acceptable test concentration (typically 50 μM; lower if the highest concentration data are rejected due to insolubility). […] (GSH) adduct formation data was assessed as reported in a previous study.[42] Briefly, RNB-61 was incubated with human liver microsomes to form reactive metabolites, and glutathione was added as a nucleophile to convert the reactive metabolites into stable conjugates that could be analyzed by MS.

[1] = Brain penetration study with/without P-gp inhibitor tariquidar; assay type: in vivo, male C57/BL6 mice
Procedure: (§1) To characterize the pharmacokinetic behavior of RNB-61, studies in rodents were conducted at the in vivo facility of F. Hoffmann-La Roche Ltd. (Basel, Switzerland). The plasma-concentration time profile was studied in rodents after single-dose RNB-61 administration by oral gavage (p.o. microsuspension excipients 7.5% gelatin/0.62% NaCl) and intravenous bolus injection (i.v. solution, excipients NMP:NaCl (30:70)). Three groups of male Wistar rats (n = 2 per group) were administered RNB-61 either at 1 mg kg^–1 i.v., 3 mg kg^–1 p.o., or 26 mg kg^–1 p.o. Plasma samples were drawn at 0.083, 0.25, 0.5, 1, 2, 4, 8, and 24 postdose in the i.v. group and at 0.25, 0.5, 0.75, 1.5, 3, 5, 8, and 24 h postdose in the p.o. groups. The samples were analyzed for RNB-61 concentration by LC/MS-MS. For the LC/MS-MS analysis, and the samples were prepared by adding 100 uL to 400 uL ACN with ISTD (100 ng/mL Bosantan in ACN/MeOH 1/1), stirring, and centrifuging (4000 rpm, 65’). 100 uL of the supernatant were pipetted and diluted with 400 μL H2O at pH 3. The analytes were separated on a Restek C18 column (5 μm, 1.0 × 3 mm). The mobile phase consisted of water containing 0.1% HCOOH as solvent A and ACN containing 0.1% HCOOH as solvent B. The gradient curve starting with 5% B was changed to 90% B between 0.4 and 0.6 min and further increased to 95% B between 0.6 and 1.2 min. This was maintained until 1.4 min and then reduced and kept at 5% B between 1.45 and 2.0 min. The mass spectrometer was operated in the positive mode. All LC-MS/MS was done using the Agilent RapidFire Analyzer software (version 4.3). The pharmacokinetic parameters were estimated by noncompartmental analysis in the Certara WinNonlin software (version 5.3). A similar study design was run in mice with three groups receiving 2 mg kg^–1 i.v., 4 mg kg^–1 p.o., or 26 mg kg^–1 p.o., and plasma sampling occurring in a composite profile (n = 2 for each time point) up to 7 or 24 h postdose. Male C57/BL6 mice (n = 5 per group) were used to study the influence of P-gp efflux on brain penetration. Two groups of mice were administered RNB-61 by i.v. bolus injection at 1 mg kg^–1 (2 groups). In order to block P-gp activity, an i.v. bolus of 5 mg kg^–1 tariquidar[46] was injected into one group 30 min prior to RNB-61. Plasma was collected at 0.083, 0.25, 0.5, 2, 4, and 7 h postdose in a composite profile. Brain, CSF, and vitreous body were collected at terminal time points 0.5, 2, 4, and 7 h postdose.

P-gp = test: as above; assay type: in vivo, male C57/BL6 mice; conditions: male, C57/BL6, mouse, with tariquidar 5 mg kg^–1 i.v. bolus, 30 min prior to RNB-61
Procedure: as §1

human CB2R = human CB2R (Homo sapiens, UniProt P34972); test: Competition binding assay with [3H]-CP55940, HEK cell membranes
Procedure: Competition and saturation binding assays were performed using the radiolabeled CB1R/CB2R agonist [^3H]-CP55940 (PerkinElmer).
Binding reactions were terminated by vacuum filtration onto 0.5% polyethylenimine presoaked GF/B filter plates (Packard) using a Filtermate cell harvester followed by 6 brief washes with 0.3 mL/well of ice-cold wash buffer. Wash buffer comprising 50 mmol L^–1 Tris- HCl, 5 mmol L^–1 MgCl2, 2.5 mmol L^–1 EDTA, and 0.5% fatty acid-free BSA, pH 7.4. Plates were dried at 50 °C for 1 h and liquid scintillation counting was used to determine levels of bound radiolabel. IC50 values and Hill slopes were determined with a 4-parameter logistic model using ActivityBase (ID Business Solution, Guilford, UK) and pKi values were determined using the Cheng–Prusoff equation as shown below: [drawing 1] where S indicates the concentration of the substrate and Km depicts the affinity constant of the substrate.

[2] = RNB-61 1 mg kg^–1 i.v. + tariquidar 5 mg kg^–1 i.v.
[3] = RNB-61 1 mg kg^–1 i.v., no tariquidar

human CB2R, sequence (P34972 whole entry): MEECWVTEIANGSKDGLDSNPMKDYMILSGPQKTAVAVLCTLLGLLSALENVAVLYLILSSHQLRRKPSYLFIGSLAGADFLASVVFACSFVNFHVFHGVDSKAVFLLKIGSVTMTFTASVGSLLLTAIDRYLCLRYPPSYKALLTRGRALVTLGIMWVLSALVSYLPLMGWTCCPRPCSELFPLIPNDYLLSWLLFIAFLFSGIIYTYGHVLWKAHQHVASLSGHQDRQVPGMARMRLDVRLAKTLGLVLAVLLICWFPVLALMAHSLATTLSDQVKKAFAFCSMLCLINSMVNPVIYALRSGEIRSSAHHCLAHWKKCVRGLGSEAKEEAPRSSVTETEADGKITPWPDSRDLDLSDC
ABHD12, sequence (Q8N2K0 whole entry, species assumed): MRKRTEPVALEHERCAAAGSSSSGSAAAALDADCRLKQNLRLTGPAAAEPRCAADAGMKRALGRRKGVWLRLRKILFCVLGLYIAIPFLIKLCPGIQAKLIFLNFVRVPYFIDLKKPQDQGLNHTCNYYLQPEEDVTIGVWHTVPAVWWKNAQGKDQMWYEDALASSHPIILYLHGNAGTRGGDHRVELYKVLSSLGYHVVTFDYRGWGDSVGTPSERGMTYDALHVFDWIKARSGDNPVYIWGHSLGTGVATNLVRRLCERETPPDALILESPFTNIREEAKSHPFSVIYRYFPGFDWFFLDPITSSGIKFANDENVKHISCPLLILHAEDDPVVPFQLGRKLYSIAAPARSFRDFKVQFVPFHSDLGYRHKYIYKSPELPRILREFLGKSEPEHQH
T1 sequence (P47936 whole entry): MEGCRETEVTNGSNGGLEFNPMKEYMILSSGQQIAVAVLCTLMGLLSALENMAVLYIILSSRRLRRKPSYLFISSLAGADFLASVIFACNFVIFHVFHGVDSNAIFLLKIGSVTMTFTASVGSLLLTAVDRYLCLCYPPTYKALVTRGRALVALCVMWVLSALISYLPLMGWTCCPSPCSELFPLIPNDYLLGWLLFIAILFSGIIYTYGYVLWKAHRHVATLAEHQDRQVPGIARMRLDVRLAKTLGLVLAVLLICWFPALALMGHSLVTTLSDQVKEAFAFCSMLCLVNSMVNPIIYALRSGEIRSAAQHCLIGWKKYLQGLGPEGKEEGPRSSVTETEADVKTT
cynomolgus CB2R, sequence (G7NVV5 1-360): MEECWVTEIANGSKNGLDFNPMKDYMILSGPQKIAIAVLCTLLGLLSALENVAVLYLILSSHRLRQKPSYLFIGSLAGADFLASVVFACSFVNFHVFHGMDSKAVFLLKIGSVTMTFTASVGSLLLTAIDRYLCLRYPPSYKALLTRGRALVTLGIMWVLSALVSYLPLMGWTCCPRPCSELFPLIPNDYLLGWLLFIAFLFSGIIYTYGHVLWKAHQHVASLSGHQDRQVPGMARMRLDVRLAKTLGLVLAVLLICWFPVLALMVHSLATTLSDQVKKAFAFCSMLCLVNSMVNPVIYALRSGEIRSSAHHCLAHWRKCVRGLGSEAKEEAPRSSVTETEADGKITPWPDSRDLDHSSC

Compound: Cn1c(C(C)(C)C)cc(=NC(=O)c2cc(C(F)(F)F)ccc2OCC(C)(C)O)n1CC1CCC1 [RNB-61]
- EC50 (mouse CB2R): 0.25 ± 0.13 nM
- EC50 (cynomolgus CB2R): 0.7 ± 0.03 nM
- IC50 (ABHD12; Table S1, read-out: ABHD12 (Ki, IC50)): > 10000 nM
- inhibition of EC hydrolysis by ABHD12 (ABHD12; screening concentration 10 μM): did not inhibit
- GSH adducts (rat liver microsomes) (GSH adduct formation): did not form any adducts
- AUClast lower in the brain compared to plasma ([1]; 1 mg kg^–1 i.v., no tariquidar): > 10 fold
- peak brain concentration lower compared to plasma level ([1]; 1 mg kg^–1 i.v., no tariquidar): > 20 fold
- brain AUCinf [1, 2]: 4386 ng·h/mL
- brain AUClast [1, 2]: 1877 ng·h/mL
- brain Cmax [1, 2]: 342 ng/mL
- brain AUCinf [1, 3]: 375 ng·h/mL
- brain AUClast [1, 3]: 215 ng·h/mL
- brain Cmax [1, 3]: 41.3 ng/mL
- half-life ([1]; male, C57/BL6, mouse, brain, iv, RNB-61 1 mg kg^–1 i.v., no tariquidar, read-out: brain T1/2 (converted)): 5.98 h
- Tmax ([1]; male, C57/BL6, mouse, brain, iv, RNB-61 1 mg kg^–1 i.v., no tariquidar, read-out: brain Tmax): 0.58 h
- Kp ([1]; male, C57/BL6, mouse, iv, ratio of AUClast in brain and plasma, 1 mg kg^–1 i.v., no tariquidar, read-out: brain-plasma partition coefficient Kp): 0.088
- Cmax ([1]; male, C57/BL6, mouse, plasma, iv, RNB-61 1 mg kg^–1 i.v., no tariquidar): 972 ng/mL
- AUC(0-inf) ([1]; male, C57/BL6, mouse, plasma, iv, RNB-61 1 mg kg^–1 i.v., no tariquidar, read-out: plasma AUCinf): 3320 ng·h/mL
- AUC(0-t) ([1]; male, C57/BL6, mouse, plasma, iv, RNB-61 1 mg kg^–1 i.v., no tariquidar, read-out: plasma AUClast): 2430 ng·h/mL
- clearance ([1]; male, C57/BL6, mouse, plasma, iv, RNB-61 1 mg kg^–1 i.v., no tariquidar, read-out: plasma CL (converted)): 5.02 mL/min/kg
- half-life ([1]; male, C57/BL6, mouse, plasma, iv, RNB-61 1 mg kg^–1 i.v., no tariquidar, read-out: plasma T1/2 (converted)): 4 h
- Tmax ([1]; male, C57/BL6, mouse, plasma, iv, RNB-61 1 mg kg^–1 i.v., no tariquidar, read-out: plasma Tmax): 0.25 h
- brain Cmax and AUClast higher with tariquidar than RNB-61 alone ([1]; tariquidar 5 mg kg^–1): ~10 fold
- half-life (P-gp; brain, iv, RNB-61 1 mg kg^–1 i.v. + tariquidar 5 mg kg^–1 i.v., read-out: brain T1/2 (converted)): 8.42 h
- Tmax (P-gp; brain, iv, RNB-61 1 mg kg^–1 i.v. + tariquidar 5 mg kg^–1 i.v., read-out: brain Tmax): 0.53 h
- Kp (P-gp; intravenous, ratio of AUClast in brain and plasma, + tariquidar 5 mg kg^–1, read-out: brain-plasma partition coefficient Kp): 0.747
- Cmax (P-gp; plasma, iv, RNB-61 1 mg kg^–1 i.v. + tariquidar 5 mg kg^–1 i.v.): 737 ng/mL
- AUC(0-inf) (P-gp; plasma, iv, RNB-61 1 mg kg^–1 i.v. + tariquidar 5 mg kg^–1 i.v., read-out: plasma AUCinf): 3560 ng·h/mL
- AUC(0-t) (P-gp; plasma, iv, RNB-61 1 mg kg^–1 i.v. + tariquidar 5 mg kg^–1 i.v., read-out: plasma AUClast): 2510 ng·h/mL
- clearance (P-gp; plasma, iv, RNB-61 1 mg kg^–1 i.v. + tariquidar 5 mg kg^–1 i.v., read-out: plasma CL (converted)): 4.68 mL/min/kg
- half-life (P-gp; plasma, iv, RNB-61 1 mg kg^–1 i.v. + tariquidar 5 mg kg^–1 i.v., read-out: plasma T1/2 (converted)): 3.68 h
- Tmax (P-gp; plasma, iv, RNB-61 1 mg kg^–1 i.v. + tariquidar 5 mg kg^–1 i.v., read-out: plasma Tmax): 0.083 h
- Ki (human CB2R): 0.57 ± 0.03 nM
- hCB2R selectivity (human CB2R; Ki hCB1R over Ki hCB2R): 6810
- selectivity over hCB1R (human CB2R; hCB2R over hCB1R): 6,800 fold
